Experimental data as given in PubChem BioAssay AID2060909 (Molecular Pharmacology Branch, DTP, NCI, 2025).
Several values for one entry are separate records, joined by “and”; a condition that tells them apart may be missing. Equal entries are not always repeated. Values belong to the compound of their own block, whether it stands above or below them.

Tested on: 362531-283-R-J2-PDC complex spheroid viability
Test: Anticancer human tumor 362531-283-R-J2-PDC patient-derived colon adenocarcinoma cell line growth inhibition [RAS]
Details: for viability, T/C: stronger effect = lower value
Summary of the method: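 Multi-cell-type spheroids: tumor cells plus HUVEC endothelial cells and mesenchymal stem cells. RAS-pathway inhibitors were combined with targeted agents, each dosed in half-log steps down from clinical Cmax, or from 10 microM when Cmax was unknown.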
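Note: spheroids exposed to the agents for 7 days before readout.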
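Throughout, for viability, T/C: luminescence viability as percent of DMSO vehicle control wells.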

- IC50 (curve of compound): 0.0539 µM and > 0.1 µM and 0.0758 µM
SMILES: CC(C)n1nc(-c2ccc3oc(N)nc3c2)c2c(N)ncnc21
- viability, T/C (compound 0.000316 µM): 103% [middle of 4 runs]
- viability, T/C (compound 0.001 µM): 99.1% [middle of 4 runs]
- viability, T/C (compound 0.00316 µM): 101% [middle of 4 runs]
- viability, T/C (compound 0.0316 µM): 63.5% [middle of 4 runs]

- IC50 (curve of first compound, second compound 0.000949 µM): 4.52 µM
- IC50 (curve of first compound, second compound 0.003 µM): 4.5 µM
- IC50 (curve of first compound, second compound 0.00949 µM): 4.34 µM
- IC50 (curve of first compound, second compound 0.03 µM): 4.72 µM
- IC50 (curve of first compound, second compound 0.0949 µM): 4.68 µM
- IC50 (curve of first compound, second compound 0.3 µM): 4.95 µM
SMILES: CCC(CC)c1cc(NC2CCC(N)C2)n2nccc2n1 (configuration not stated) + CCn1c(-c2cccnc2C(C)OC)c2c3cc(ccc31)N1CCOC(CC(NC(=O)C(C(C)C)N(C)C(=O)C3(F)CCN(C(=O)C#CC(C)(C)N(C)C)CC3)C(=O)N3CCCC(N3)C(=O)OCC(C)(C)C2)C1
- viability, T/C (second compound 0.000949 µM, first compound 0.0316 µM): 99.5%
- viability, T/C (second compound 0.000949 µM, first compound 0.1 µM): 111%
- viability, T/C (second compound 0.000949 µM, first compound 0.316 µM): 98.1%
- viability, T/C (second compound 0.000949 µM, first compound 1 µM): 98.4%
- viability, T/C (second compound 0.000949 µM, first compound 3.16 µM): 70.5%
- viability, T/C (second compound 0.000949 µM, first compound 10 µM): 3.98%
- viability, T/C (second compound 0.003 µM, first compound 0.0316 µM): 105%
- viability, T/C (second compound 0.003 µM, first compound 0.1 µM): 101%
- viability, T/C (second compound 0.003 µM, first compound 0.316 µM): 99.9%
- viability, T/C (second compound 0.003 µM, first compound 1 µM): 101%
- viability, T/C (second compound 0.003 µM, first compound 3.16 µM): 70.8%
- viability, T/C (second compound 0.003 µM, first compound 10 µM): 3.44%
- viability, T/C (second compound 0.00949 µM, first compound 0.0316 µM): 103%
- viability, T/C (second compound 0.00949 µM, first compound 0.1 µM): 116%
- viability, T/C (second compound 0.00949 µM, first compound 0.316 µM): 97.9%
- viability, T/C (second compound 0.00949 µM, first compound 1 µM): 96.5%
- viability, T/C (second compound 0.00949 µM, first compound 3.16 µM): 67.2%
- viability, T/C (second compound 0.00949 µM, first compound 10 µM): 3.91%
- viability, T/C (second compound 0.03 µM, first compound 0.0316 µM): 102%
- viability, T/C (second compound 0.03 µM, first compound 0.1 µM): 104%
- viability, T/C (second compound 0.03 µM, first compound 0.316 µM): 95.8%
- viability, T/C (second compound 0.03 µM, first compound 1 µM): 89%
- viability, T/C (second compound 0.03 µM, first compound 3.16 µM): 76.8%
- viability, T/C (second compound 0.03 µM, first compound 10 µM): 4.25%
- viability, T/C (second compound 0.0949 µM, first compound 0.0316 µM): 94.3%
- viability, T/C (second compound 0.0949 µM, first compound 0.1 µM): 102%
- viability, T/C (second compound 0.0949 µM, first compound 0.316 µM): 93.7%
- viability, T/C (second compound 0.0949 µM, first compound 1 µM): 94.8%
- viability, T/C (second compound 0.0949 µM, first compound 3.16 µM): 73.7%
- viability, T/C (second compound 0.0949 µM, first compound 10 µM): 4.42%
- viability, T/C (second compound 0.3 µM, first compound 0.0316 µM): 99.2%
- viability, T/C (second compound 0.3 µM, first compound 0.1 µM): 105%
- viability, T/C (second compound 0.3 µM, first compound 0.316 µM): 100%
- viability, T/C (second compound 0.3 µM, first compound 1 µM): 91.8%
- viability, T/C (second compound 0.3 µM, first compound 3.16 µM): 80.8%
- viability, T/C (second compound 0.3 µM, first compound 10 µM): 4.23%
